In patent publication US20250360149A1, “GPCR INHIBITORS AND USES THEREOF” (GPCR Therapeutics, Inc., priority 2022, published 2025):
One block for each molecule: values may come before it.

Assays:
C57/B16 mice = assay: Complete blood count, beta blockers +/- GPC100, single agents and combinations (Examples 6-7); conditions: for effect of 7-day beta blocker on GPC100-induced mobilization: GPC100 30 mg/kg IV on day 7
C57/BL6 mice = assay: Complete blood count in peripheral blood, Example 1 mobilization studies; conditions: 7-day treatment alone, 20 mg/kg IP
[1] = system: LSK cells (Lineage−Sca−1+c−Kit+); assay: Flow cytometry of LSK cells in peripheral blood; conditions: mouse, in vivo
C57BL/6J or Balb/c mice [2] = assay: In vivo mobilization, CBC analysis of WBC (Example 11); conditions: for fold increase in WBCs compared to the vehicle: PB 2 h after GPC-100 30 mg/kg IV, 1 h after AMD3100 5 mg/kg SC, 12 h after G-CSF 0.1 mg/kg SC BID x5, propranolol 20 mg/kg IP QD x7
[3] = biological target: CXCR4 and B2AR heteromers (Homo sapiens, UniProt P61073); conditions: MDA-MB-231 cells
Sequence of CXCR4 and B2AR heteromers (P61073 whole entry, one chain of several): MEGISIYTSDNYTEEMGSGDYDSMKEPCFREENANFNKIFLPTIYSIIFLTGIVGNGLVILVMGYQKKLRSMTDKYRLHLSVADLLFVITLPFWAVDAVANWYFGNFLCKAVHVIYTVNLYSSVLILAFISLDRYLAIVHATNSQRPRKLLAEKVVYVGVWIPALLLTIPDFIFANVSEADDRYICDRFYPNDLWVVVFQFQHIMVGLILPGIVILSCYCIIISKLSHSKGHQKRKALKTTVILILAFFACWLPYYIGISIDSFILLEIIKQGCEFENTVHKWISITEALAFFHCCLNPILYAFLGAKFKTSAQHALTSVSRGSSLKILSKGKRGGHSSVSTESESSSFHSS

C57BL/6J or Balb/c mice [4] = conditions: 5 mg/kg SC, literature; cited from earlier work

Molecule: CC(C)(C)NCC(O)COc1cccc2c1CC(O)C(O)C2 (centres unmarked) [Nadolol]
effect of 7-day beta blocker on GPC100-induced mobilization (C57/B16 mice): enhanced

B1: G-CSF: Recombinant murine G-CSF, granulocyte-colony stimulating factor (protein, UniProt P09920 31-208, looked up)
Granulocyte …: VPLVTVSALPPSLPLPRSFLLKSLEQVRKIQASGSVLLEQLCATYKLCHPEELVLLGHSLGIPKASLSGCSSQALQQTQCLSQLHSGLCLYQGLLQALSGISPALAPTLDLLQLDVANFATTIWQQMENLGVAPTVQPTQSAMPAFTSAFQRRAGGVLAISYLQGFLETARLALHHLA
WBC mobilization, single agent comparison (C57/B16 mice; single agent): Maximum mobilization
neutrophil mobilization, single agent comparison (C57/B16 mice; single agent): more neutrophils than GPC100 or AMD3100
fold increase in WBCs compared to the vehicle (C57BL/6J or Balb/c mice [2]): 4.5 fold

Now from value to molecule, other results behind:

effect on total blood cell counts when administered alone (C57/B16 mice; seven-day IP, propranolol 20 mg/kg, nadolol 5 mg/kg, ICI-118,551 5 mg/kg): did not affect
Molecule: Cc1ccc(OCC(O)C(C)NC(C)C)c2c1CCC2 (centres unmarked) [ICI-118,551]

Hemoglobin (C57/BL6 mice): 13.15 ± 0.8 g/dL
Platelets (C57/BL6 mice): 266 ± 52 10^3/uL
RBC (C57/BL6 mice): 9.8 ± 0.36 10^6/uL
Molecule: CC(C)NCC(O)COc1cccc2ccccc12 (centres unmarked) [Propranolol]
Lymphocytes (C57/BL6 mice): 4.7 ± 1.3 10^3/uL
Monocytes (C57/BL6 mice): 0.2 ± 0.09 10^3/uL
Neutrophils (C57/BL6 mice): 0.42 ± 0.3 10^3/uL
WBC (C57/BL6 mice; vehicle IV on day 7): 5.4 ± 1.7 10^3/uL
effect of 7-day beta blocker on GPC100-induced mobilization (C57/B16 mice): enhanced
effect on AMD3100-induced mobilization of lymphocytes (C57/B16 mice; propranolol 20 mg/kg IP D1-D7, AMD3100 5 mg/kg SC D7): slightly increase
effect of propranolol on LSK cell mobilization by GPC-100 [1]: enhanced
effect of propranolol pretreatment on GPC-100 induced mobilization (C57BL/6J or Balb/c mice [2]; 20 mg/kg IP over 7 days): significantly improved
fold increase in WBCs compared to the vehicle (C57BL/6J or Balb/c mice [2]): 4.1 fold

Inhibition of Ca2+ flux enhanced by co-treatment with Pro (in words) [3]: not
changes in platelet count, hemoglobin or other red blood cell parameters (C57BL/6J or Balb/c mice [2]; single administration): No changes
Molecule: c1cc(CN2CCCNCCNCCCNCC2)ccc1CN1CCCNCCNCCCNCC1 [AMD3100, Plerixafor]
time of peak mobilization (C57BL/6J or Balb/c mice [4]): 1 h
